In patent publication US11865126B2, “Method for treating anxiety disorders, headache disorders, and eating disorders with psilocybin” (priority 2019, dated 2024):

Assays:
CCK-4-treated rats = test: Elevated plus maze (EPM) after CCK-4 induced panic anxiety; type: in vivo, rat
Description: This example examines the effects of psilocybin on induced panic anxiety. The elevated plus maze (EPM) is a widely used behavioral assay for rodents to assess anti-panic or anti-anxiety effects of pharmacological agents. Briefly, rodents are placed at the junction of the four arms of the maze, facing an open arm, and entries/duration in each arm are recorded over a period of time. An increase in open arm activity reflects anti-anxiety behavior (Walf et al., Nature Protocols, 2007).
Panic anxiety can be induced in rodents through administration of panicogenic drugs such as cholecystokinin tetrapeptide (CCK-4). Peripheral administration of CCK-4 leads to an anxiogenic-like action in the EPM model of anxiety in rats. The anxiogenic effect of CCK-4 can be antagonized by benzodiazepine (e.g., diazepam) treatment.
Animal handling was performed on a daily basis starting 1 week before the EPM assay. CCK-4 was prepared in saline at the dosage volume of 1 mL/kg and was intraperitoneally administered to the rats 30 min before implementation of the EPM test resulting in a CCK-4 dose of 0.2 mg/kg. CCK-4 was administered to all treatment groups except for the vehicle control (saline). Treatment groups for this study are shown below in Table 33. The EPM assay was performed 2 hours, and 24 hours following administration of psilocybin, and 1 hour after administration of diazepam.
The apparatus used in the EPM assay was a PVC maze covered with Plexiglas and subdivided into four equal exploratory arms (21×8 cm). All arms were interconnected by a small platform (8×8 cm). The apparatus was placed 59 cm above the floor. Two arms were open and two arms were closed with walls (height: 21 cm).
After the appropriate pre-treatment time, the rat was placed on the platform opposite a closed arm. The number of entries and the time spent in each arm were recorded during a 5 min period. The animal was considered as entered in an arm when it placed four paws in the arm. During the trial, animal handling and the visibility of the operator was minimized as much as possible.
The results were analyzed by analysis of variance (ANOVA). Fisher's PLSD was used for pairwise comparisons and p value s 0.05 were considered significant.

female Wistar rats = test: Binge eating model: chow, chocolate and total food intake
[1] = positive control, 1 hour after administration
[2] = 0.2 mg/kg i.p., 30 min before EPM

Compound: CN1C(=O)CN=C(c2ccccc2)c2cc(Cl)ccc21 [Diazepam, diazepam]
- Number of entries into the open arms vs CCK-4 alone (CCK-4-treated rats; [1]): significant increase
- Time spent in the open arms vs CCK-4 alone (CCK-4-treated rats; [1]): significant increase

Compound: CSCC[C@H](NC(=O)[C@@H](N)Cc1c[nH]c2ccccc12)C(=O)N[C@@H](CC(=O)O)C(=O)N[C@@H](Cc1ccccc1)C(N)=O [CCK-4, cholecystokinin tetrapeptide]
- Number of entries into the open arm vs saline alone (CCK-4-treated rats; [2]): significantly reduced
- Time spent in the open arm vs saline alone (CCK-4-treated rats; [2]): significantly reduced

Compound: C[C@@H](Cc1ccccc1)NC(=O)[C@@H](N)CCCCN [LDX, lisdexamfetamine]
- Chocolate intake during binging session vs vehicle/binge (female Wistar rats; 0.8 mg/kg daily PO, 1 hour): significantly reduced chocolate eating
- Food intake over a 24 hour period (female Wistar rats; Day 1, 0.8 mg/kg daily PO): significantly reduced
